Results as given in paper PMC9279627 (Acta Pharmaceutica Sinica. B, 2021).

Tests used:
CYP2C9 [1] = target: T1, CYP2C9 (Homo sapiens, UniProt P11712); assay type: biochemical; conditions: for Concentration-dependent inhibitory effect toward CYP2C9: 0.1, 0.5, 1, 10 and 20 μmol/L, DDAM, Fig. 4B; for Modulation of CYP2C9 activity in visual high-throughput screen: clinical drugs 10 μmol/L, DDAM 10 μmol/L, HLM, 96-well microplate
[2] = system: CYP2J2 in HeLa and HepG2 cells; experiment: Confocal fluorescence imaging of CYP2J2 activity by MXMB in living cells; assay type: cell-based, human; conditions: Fig. S13
CYP2C9 [3] = target: T1, CYP2C9; conditions: DDAM 10 μmol/L, Fig. S6

T1 sequence (P11712 whole entry): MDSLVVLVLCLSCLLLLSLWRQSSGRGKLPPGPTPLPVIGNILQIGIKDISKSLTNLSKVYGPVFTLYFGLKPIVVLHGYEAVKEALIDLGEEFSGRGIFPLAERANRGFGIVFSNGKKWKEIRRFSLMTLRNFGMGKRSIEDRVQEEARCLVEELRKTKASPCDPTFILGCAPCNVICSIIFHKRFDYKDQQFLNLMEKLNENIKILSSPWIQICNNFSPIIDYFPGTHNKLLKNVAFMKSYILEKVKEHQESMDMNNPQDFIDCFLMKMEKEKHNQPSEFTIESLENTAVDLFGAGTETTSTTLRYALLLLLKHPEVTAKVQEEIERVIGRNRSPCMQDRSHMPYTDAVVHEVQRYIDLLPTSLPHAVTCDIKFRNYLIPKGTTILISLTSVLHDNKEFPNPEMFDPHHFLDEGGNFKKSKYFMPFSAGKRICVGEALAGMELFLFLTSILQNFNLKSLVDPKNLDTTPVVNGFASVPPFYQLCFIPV

Row | SMILES | Modulation of CYP2C9 activity in visual high-throughput screen (CYP2C9 [1]) | further results
1 | Clc1ccc(COC(Cn2ccnc2)c2ccc(Cl)cc2Cl)c(Cl)c1 (stereo not shown) [miconazole] | strong inhibitors | Concentration-dependent inhibitory effect toward CYP2C9 (CYP2C9 [1]): significant inhibitory effect
2 | COc1ccnc(C[S+]([O-])c2nc3ccc(OC(F)F)cc3[nH]2)c1OC (stereo not shown) [pantoprazole] | activators | 
3 | C[C@]12CC[C@@H]3c4ccc(O)cc4CC[C@H]3[C@@H]1CC[C@@H]2O [estradiol] | activators | 
4 | C#C[C@]1(O)CC[C@H]2[C@@H]3CCC4=Cc5oncc5C[C@]4(C)[C@H]3CC[C@@]21C [danazol] |  | Effect of pre-treatment on intracellular fluorescence of MXMB [2]: remarkable suppression of intracellular fluorescence
5 | CCCCCCCCCCCc1cc(=O)c2ccccc2n1C [1-methyl-2-undecyl-4(1H) quinolone] |  | Inhibitor of CYP2C9 identified from E. rutaecarpa extract (CYP2C9 [1]; DDAM fluorescence assay, pre-HPLC fractions): novel inhibitor
6 | Nc1ccc(S(=O)(=O)Nc2ccnn2-c2ccccc2)cc1 [sulfaphenazole] | strong inhibitors | Concentration-dependent inhibitory effect toward CYP2C9 (CYP2C9 [1]): significant inhibitory effect; Effect on demethylation of DDAM (CYP2C9 [3]): inhibited
7 | Nc1ccc(S(=O)(=O)c2ccc(N)cc2)cc1 [dapsone] | activators | 
8 | COc1ccc2[nH]c([S+]([O-])Cc3ncc(C)c(OC)c3C)nc2c1 (stereo not shown) [omeprazole] | activators | 
9 | Cc1c(OCC(F)(F)F)ccnc1C[S+]([O-])c1nc2ccccc2[nH]1 (stereo not shown) [lansoprazole] | activators | 
10 | NCCc1ccc(O)c(O)c1 [dopamine] | activators | 
11 | O=C(c1ccc(OCCN2CCCCC2)cc1)c1c(-c2ccc(O)cc2)sc2cc(O)ccc12 [raloxifene] | strong inhibitors | Concentration-dependent inhibitory effect toward CYP2C9 (CYP2C9 [1]): significant inhibitory effect
12 | COC(=O)Nc1nc2ccc(C(=O)c3ccccc3)cc2[nH]1 [mebendazole] | activators | 
